Test results reported in ChEMBL document CHEMBL1201862, “PubChem BioAssay data set” (2004).
Calls of active or inactive are those of the source.

What was measured:
Genome polyprotein = Genome polyprotein (Hepatitis C virus, UniProt Q2Q167); test: HCV core protein dimerization inhibitors, dose response, biochemical, TR-FRET (AID 2159); design: species or system Hepacivirus hominis;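 further: blocks dimerization of HCV core protein measured by TR-FRET between tagged core106 pairs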
[1] = biological target: Endoplasmic reticulum aminopeptidase 1 (Homo sapiens, UniProt Q9NZ08); test: ERAP1 aminopeptidase inhibitors, dose response, biochemical, cherry-pick, set 2, plate reader (AID 743314)
[2] = cytotoxicity dependent on PAX8, dose response, cell-based, plate reader, dry powder (AID 743049); assay type: functional
[3] = cytotoxicity in COV434 cells, dose response, cytotoxicity control for PAX8 inhibitor project, cell-based, plate reader, dry powder, SA7 (AID 743145); assay type: functional
[4] = cytotoxicity in OV-90 ovarian cancer cells, dose response, PAX8 inhibitor project, cell-based, plate reader, dry powder, SA8 (AID 743149); assay type: functional
[5] = NIH:OVCAR-3 ovarian cancer cell cytotoxicity, dose response, PAX8 inhibitor project, plate reader, dry powder samples (AID 743044); assay type: functional, cell-based
Paired box protein Pax-8 = Paired box protein Pax-8 (Homo sapiens, UniProt Q06710); test: inhibitors of PAX8-driven TPO luciferase reporter, dose response, RMG-I cells, cherry-pick (AID 687027); assay type: functional, cell-based;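 further: luciferase reporter driven by Pax8 target thyroperoxidase promoter measured by SteadyGlo luminescence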
[6] = cytotoxicity in COV362 ovarian cancer cells, dose response, cytotoxicity control for PAX8 inhibitor project, cell-based, plate reader, dry powder, SA12 (AID 743144); assay type: functional
[7] = PAX5 activity inhibitors, dose response, selectivity assay for PAX8 inhibitor project, cell-based, plate reader, dry powder samples (AID 743047); assay type: functional;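 further: HEK293 cells carrying a Pax5 driven CD19 promoter luciferase reporter; potency of inhibitors that lower reporter luminescence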
[8] = PAX2 cell-based inhibition, dose response, selectivity assay for PAX8 inhibitor project, plate reader, dry powder samples (AID 743048); assay type: functional;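 further: HEK293 cells carrying a WT1 promoter luciferase reporter driven by expressed Pax2; potency is for inhibition of Pax2 driven reporter signal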
[9] = biological target: T1, RNA-binding protein pos-1 (Caenorhabditis elegans, UniProt G5EF15); test: inhibitors of POS-1/mex-3 RNA binding, dose response, biochemical, fluorescence polarization (AID 1964);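 further: purified POS-1 fused to maltose binding protein made in E. coli; potency of compounds blocking POS-1 binding to fluorescent RNA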
T1 sequence (G5EF15 whole entry): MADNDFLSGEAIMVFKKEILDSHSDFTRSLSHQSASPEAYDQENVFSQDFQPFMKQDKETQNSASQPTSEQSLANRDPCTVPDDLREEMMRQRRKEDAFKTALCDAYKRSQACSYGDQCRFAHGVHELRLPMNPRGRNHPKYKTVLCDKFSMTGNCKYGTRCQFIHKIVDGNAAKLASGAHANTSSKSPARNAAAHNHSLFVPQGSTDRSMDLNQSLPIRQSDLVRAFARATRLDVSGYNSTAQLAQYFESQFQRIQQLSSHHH

[10] = inhibitors of SNCA 5'UTR-driven reporter translation, confirmation, H4 neuroglioma cells, luminescence (AID 1988); assay type: functional, cell-based
[11] = biological target: T2, Oxysterols receptor LXR-beta (Homo sapiens, UniProt P55055); assay type: functional, cell-based;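 further: Cell-based luminescence dose-response assay of agonist activity at LXR, run as a confirmatory counterscreen to a daf-12 agonist screen; HEK293 cells with Gal4-LXR fusion and GAL4-driven luciferase reporter; agonist potency from rising luciferase signal of a Gal4-LXR reporter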
T2 sequence (P55055 whole entry): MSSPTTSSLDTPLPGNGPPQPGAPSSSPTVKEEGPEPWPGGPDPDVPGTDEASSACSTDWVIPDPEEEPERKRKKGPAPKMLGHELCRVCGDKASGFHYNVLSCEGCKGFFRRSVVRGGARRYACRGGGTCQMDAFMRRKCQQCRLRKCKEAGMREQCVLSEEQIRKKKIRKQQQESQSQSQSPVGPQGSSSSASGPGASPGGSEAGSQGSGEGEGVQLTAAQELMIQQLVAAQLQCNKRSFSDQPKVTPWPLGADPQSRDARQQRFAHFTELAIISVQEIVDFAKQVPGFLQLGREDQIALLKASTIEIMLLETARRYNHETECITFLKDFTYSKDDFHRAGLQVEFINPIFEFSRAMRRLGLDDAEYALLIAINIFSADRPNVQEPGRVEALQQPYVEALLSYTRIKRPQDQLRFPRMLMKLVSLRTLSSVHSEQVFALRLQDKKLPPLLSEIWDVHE

[12] = Luminescence-based cell-based high throughput dose response assay to identify activators of the DAF-12 from the parasite S. stercoralis (ssDAF-12).; assay type: functional
[13] = Luminescence Cell-Based Dose Response HTS to Identify Inhibitors of 5'UTR Stem-Loop Driven Prion Protein mRNA Translation in H4 Neuroglioblastoma Cells. [Related pubchem assays: 1827 (Project Summary), 1813 (Primary HTS)]; assay type: functional
[14] = biological target: T3, Zinc finger protein mex-5 (Caenorhabditis elegans, UniProt Q9XUB2); test: MEX-5/TCR-2 RNA interaction inhibitors, dose response, biochemical, C. elegans, fluorescence polarization (AID 1960)
T3 sequence (Q9XUB2 whole entry): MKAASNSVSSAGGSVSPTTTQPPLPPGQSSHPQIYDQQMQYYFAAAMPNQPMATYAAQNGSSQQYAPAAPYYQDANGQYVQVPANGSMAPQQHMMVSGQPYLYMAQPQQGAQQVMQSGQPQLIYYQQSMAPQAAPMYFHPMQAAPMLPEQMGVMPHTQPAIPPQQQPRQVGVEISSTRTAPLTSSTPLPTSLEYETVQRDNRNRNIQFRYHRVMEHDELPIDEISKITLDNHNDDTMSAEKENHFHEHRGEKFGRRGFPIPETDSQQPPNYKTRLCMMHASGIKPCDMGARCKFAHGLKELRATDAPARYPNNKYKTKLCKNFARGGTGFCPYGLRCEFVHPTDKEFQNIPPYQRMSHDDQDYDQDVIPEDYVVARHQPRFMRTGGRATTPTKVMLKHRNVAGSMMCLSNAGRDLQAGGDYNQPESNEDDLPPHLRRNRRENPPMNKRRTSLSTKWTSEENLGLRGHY

[15] = biological target: RNA-editing ligase 1, mitochondrial (Trypanosoma brucei brucei, UniProt P86926); test: TbREL1 ligase inhibitors, dose response, biochemical, fluorescence, Trypanosoma brucei (AID 1117295); assay type: functional
[16] = P. falciparum Dd2 growth inhibitors, dose response, SYBR Green, dry powder samples, set 9 (AID 1159568); assay type: functional, cell-based

Sequence of RNA-editing ligase 1, mitochondrial (P86926 whole entry): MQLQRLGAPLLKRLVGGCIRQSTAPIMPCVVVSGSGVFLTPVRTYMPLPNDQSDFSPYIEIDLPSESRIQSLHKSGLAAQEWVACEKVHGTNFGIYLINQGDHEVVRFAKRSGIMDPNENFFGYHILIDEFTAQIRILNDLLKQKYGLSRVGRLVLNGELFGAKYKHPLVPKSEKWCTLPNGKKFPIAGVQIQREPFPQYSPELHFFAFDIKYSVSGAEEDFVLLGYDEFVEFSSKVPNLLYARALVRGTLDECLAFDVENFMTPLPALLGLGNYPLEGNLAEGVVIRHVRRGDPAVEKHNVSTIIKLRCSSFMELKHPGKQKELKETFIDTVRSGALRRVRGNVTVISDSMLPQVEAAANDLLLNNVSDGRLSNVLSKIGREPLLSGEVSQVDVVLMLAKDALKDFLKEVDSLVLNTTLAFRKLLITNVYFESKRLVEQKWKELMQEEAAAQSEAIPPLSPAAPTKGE
Sequence of Paired box protein Pax-8 (Q06710 whole entry): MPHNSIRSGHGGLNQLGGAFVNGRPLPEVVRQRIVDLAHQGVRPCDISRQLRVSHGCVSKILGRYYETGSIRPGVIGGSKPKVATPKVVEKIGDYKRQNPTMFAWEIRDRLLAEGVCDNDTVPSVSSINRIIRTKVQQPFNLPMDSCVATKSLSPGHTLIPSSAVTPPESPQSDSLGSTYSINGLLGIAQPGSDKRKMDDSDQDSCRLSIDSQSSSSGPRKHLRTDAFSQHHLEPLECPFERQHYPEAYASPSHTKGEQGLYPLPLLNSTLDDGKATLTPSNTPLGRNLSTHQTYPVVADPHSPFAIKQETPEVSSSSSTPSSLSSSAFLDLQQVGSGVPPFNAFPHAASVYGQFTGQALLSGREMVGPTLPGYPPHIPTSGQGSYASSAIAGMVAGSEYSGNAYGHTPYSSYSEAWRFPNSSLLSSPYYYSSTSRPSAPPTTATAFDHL
Sequence of Endoplasmic reticulum aminopeptidase 1 (Q9NZ08 whole entry): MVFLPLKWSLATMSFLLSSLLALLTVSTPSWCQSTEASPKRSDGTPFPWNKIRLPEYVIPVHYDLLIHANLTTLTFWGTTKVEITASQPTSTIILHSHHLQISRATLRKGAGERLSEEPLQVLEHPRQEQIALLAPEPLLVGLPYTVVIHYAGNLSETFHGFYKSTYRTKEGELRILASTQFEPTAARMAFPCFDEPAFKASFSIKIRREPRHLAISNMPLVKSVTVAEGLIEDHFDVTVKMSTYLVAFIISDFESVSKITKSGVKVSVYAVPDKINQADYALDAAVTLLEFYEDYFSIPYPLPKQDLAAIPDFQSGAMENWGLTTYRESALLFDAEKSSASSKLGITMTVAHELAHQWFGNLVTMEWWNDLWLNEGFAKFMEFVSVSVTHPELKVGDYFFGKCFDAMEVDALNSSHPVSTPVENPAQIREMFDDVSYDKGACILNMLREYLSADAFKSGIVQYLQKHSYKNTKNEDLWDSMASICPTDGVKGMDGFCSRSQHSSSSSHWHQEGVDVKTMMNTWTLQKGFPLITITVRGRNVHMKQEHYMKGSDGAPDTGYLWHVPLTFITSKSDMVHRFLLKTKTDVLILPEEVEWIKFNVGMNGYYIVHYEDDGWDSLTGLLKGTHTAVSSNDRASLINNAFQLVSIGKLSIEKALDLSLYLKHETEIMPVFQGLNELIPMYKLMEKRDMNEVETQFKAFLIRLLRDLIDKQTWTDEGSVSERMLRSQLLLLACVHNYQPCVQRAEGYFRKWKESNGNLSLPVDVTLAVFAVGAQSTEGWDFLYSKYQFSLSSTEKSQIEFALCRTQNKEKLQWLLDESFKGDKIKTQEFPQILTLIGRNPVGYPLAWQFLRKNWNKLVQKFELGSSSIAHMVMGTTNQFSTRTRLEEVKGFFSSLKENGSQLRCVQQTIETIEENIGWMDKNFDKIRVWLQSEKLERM
Sequence of Genome polyprotein (Q2Q167 whole entry): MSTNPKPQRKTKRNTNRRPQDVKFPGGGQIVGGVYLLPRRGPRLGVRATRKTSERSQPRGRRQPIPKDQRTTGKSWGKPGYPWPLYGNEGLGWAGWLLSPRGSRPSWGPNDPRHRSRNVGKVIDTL

With `O=[N+]([O-])c1ccc(Cl)c2c1C1C=CCC1C(c1ccccn1)N2` (stereo unspecified) the IC50 (Genome polyprotein) was > 49.8 µM (not active).
With `CCNC(=O)[C@H]1[C@H](CO)[C@H]2Cn3c(ccc(/C=C/c4ccccc4)c3=O)[C@@H]1N2C(=O)C1CCCC1` the AC50 [1] was 7.81 µM (active).
For `CCCC#Cc1ccc([C@@H]2[C@H](C#N)N(S(=O)(=O)c3cccc(F)c3)[C@H]2CO)cc1`, the AC50 [2] was 17 µM (active), the AC50 [3] was 63.8 µM (active) and the AC50 [4] was 26.9 µM (active). For the same compound, the AC50 [5] was 31.9 µM (active), the AC50 (Paired box protein Pax-8) was 5.57 µM (active) and the AC50 [6] was 35.2 µM (active). For the same compound, the AC50 [7] was 14.2 µM (active) and the AC50 [8] was 15.6 µM (active).
With `O=C1c2ccccc2C(=O)C1c1ccc2ccccc2n1` the EC50 [9] was > 300 µM (not active), the EC50 [10] was 3.11 µM (active) and the EC50 (cells) was > 67.5 µM (inactive). The EC50 [11] was > 67.5 µM (inactive), the IC50 [12] was > 67.5 µM (inactive) and the EC50 [13] was 7.02 µM (active). The EC50 [14] was > 300 µM (not active).
For `COC(=O)C1=C(C)N(Cc2cccc(C(F)(F)F)c2)C(NCc2cccc(C(F)(F)F)c2)=NC1c1ccccc1C(F)(F)F` (stereo unspecified), the IC50 [15] was > 96.6 µM (inactive).
In the case of `COc1ccc(S(=O)(=O)N(C)C[C@@H]2Oc3ncccc3C(=O)N([C@H](C)CO)C[C@@H]2C)cc1`, the AC50 [1] is reported as 8.41 µM (active).
For `Oc1cccc(-c2nnc(-c3cccc(O)c3)nn2)c1`, the EC50 (cells) was > 67.6 µM (inactive) and the EC50 [11] was > 67.6 µM (inactive).
In the case of `CCC(C)NC(=O)C1CCN(S(=O)(=O)c2ccc3[nH]c(=O)oc3c2)CC1` (stereo unspecified), the IC50 [15] is reported as 19.7 µM (inactive).
With `Cc1ccc(S(=O)(=O)Nc2ccc3c(c2)C(=O)N([C@@H](C)CO)C[C@H](C)[C@@H](CN(C)C(=O)Nc2cccc4ccccc24)OCCCC[C@@H](C)O3)cc1` the AC50 [2] was 18.2 µM (active), the AC50 [3] was 0.0021 µM (active) and the AC50 [4] was 22.8 µM (active). The AC50 [5] was 13.3 µM (active), the AC50 (Paired box protein Pax-8) was 4.15 µM (active) and the AC50 [6] was 37.3 µM (active). For the same compound, the AC50 [7] was 8.21 µM (active) and the AC50 [8] was 7.25 µM (active).
For `C[C@H]1CN([C@@H](C)CO)C(=O)c2cccc(NC(=O)c3ccc(-c4nccs4)cc3)c2O[C@@H]1CN(C)C(=O)Nc1ccc(C(F)(F)F)cc1`, the AC50 [16] was 9.87 µM (active).
